Laboratory results: patent US20230201313A1, “METHODS OF TREATING LEFT VENTRICLE HYPERTROPHY” (Amgen Inc., priority 2020, published 2023)
“Also recorded” adds a separate entry of the source.

What was measured:
PTH [1] = conditions: Hansen et al. 2012; cited from earlier work
FGF23 [2] = conditions: Hansen et al. 2012; cited from earlier work
FGF23 [3] = assay: Trial secondary endpoint: FGF23 blood levels; format: in vivo, human; conditions: 55 individuals, 12-month follow-up, FIGS. 4A-4B, versus alfacalcidol group
Text: In FIGS. 4A-4B, the data on FGF23 blood levels for the subjects in each treatment group is shown. On average, 8 measurements were available throughout follow-up for each individual.
(§1) Outcomes measurements: Laboratory analyses: Biochemical data was collected prior to hemodialysis at baseline and periodically (e.g., intact PTH, calcium, phosphate, 25-OH-Vit-D, 1,25-(OH)2-Vit-D every two weeks during the first 10 weeks followed by measurements every 4 weeks; while intact FGF23, s-klotho, proBNP and pre+postdialysis TnT was measured in 8-week-intervals). Additionally, a RAAS fingerprint was conducted before start and at the end of the treatment phase. The RAAS fingerprint is a mass spectrometry-based quantification of angiotensin metabolites. […]
(§2) Intact PTH, calcium and phosphate were analyzed in serum samples using the Cobas assay (Roche, reference range of PTH: 15-65 pg/mL, calcium: 2.15-2.55 mmol/L, phosphate: 0.81-1.45 mmol/L). Vitamin D was measured using serum samples and a chemiluminescent-immunoassays (Diasorin, reference range of 1.25-(OH)2-VitD: 19.9-79.3 pg/mL; 25-OH-Vit-D 75-250 nmol/L). Ionized calcium was measured during every dialysis session (using blood gas analysis (ABL 800 Flex, Drott)). Intact FGF23 was analyzed in plasma samples using chemiluminescent—Immunoassays (DiaSorin, reference range 23.2-95.4 pg/mL). […]

[4] = test system: maintenance hemodialysis patients with secondary hyperparathyroidism (SHPT) and LVH; assay: Single blinded randomized 12-month trial, etelcalcetide vs alfacalcidol: left ventricular mass index (LVMI) by cardiac MRI; format: in vivo, human; conditions: for estimated adjusted mean difference in the change of LVMI: ANCOVA, 1 year vs baseline, etelcalcetide group compared to alfacalcidol group
Text: For the study, 62 patients were recruited, of which 30 patients were randomized to treatment with alfacalcidol and 32 to treatment with etelcalcetide. During the course of the 12-month study, ten patients dropped out during follow-up. Data for the main outcome (left ventricular mass index, LVMI in g/m^2) was available for the patients at baseline (enrollment) and at the 1-year follow-up, except for three patients as noted in Example 1. FIG. 1A illustrates a flow chart of the study design. Turning now to FIGS. 2A-2B, data from the study is presented. […] Thus, the 10 patients who dropped out during the study are removed from the analysis. FIG. 2A is a boxplot of the unadjusted primary endpoint for the alfacalcidol and the etelcalcetide treatment groups. […] The unadjusted comparison of the primary endpoint by a 2-sample equal variances t-test yields a significant difference in LVMI change between the treatment groups (p=0.007156). Due to the non-normal distribution of the data, a non-parametric 2-sample Wilcoxon test was also performed to confirm the result (p=0.0006661). An analysis adjusted for the stratification of the randomization was conducted using an Analysis of Covariance (ANCOVA) with outcome variable “Change of LVMI” and using the randomization stratification factors (residual kidney function, center of recruitment) as well as the LVMI at baseline as covariates. […] The associated p-value was 0.00809, in accordance with the result of the unadjusted analysis. In another analysis of the data, referred to as in intention-to-treat analysis, all patients who were randomized for the study are included in the data analysis. Thus, for the 10 patients who dropped out during the study all available measurements are used at the time they were taken. Out of those, for the 3 patients without MRI measurements the outcome values are imputed (obtained as mean values from patients of the same medication group with stratification factors identical to the patient with missing data). Final data on the primary study endpoint, difference of LVMI (g/m^2) at 1 year and LVMI at baseline, for the 62 patients who were randomized for the study is shown in FIG. 2B. The unadjusted comparison of the primary endpoint by a 2-sample equal variances t-test yields a significant difference in LVMI change between the treatment groups (p=0.04691). However, due to the distribution of the data the non-parametric Wilcoxon test is deemed more reliable and confirms the results (p=0.006098). […] The associated p-value was 0.031, in accordance with the result of the unadjusted analysis. Study Overview: A single blinded randomized trial of twelve months to test the effects of etelcalcetide compared to alfacalcidol on LVH and cardiac fibrosis in maintenance hemodialysis patients with secondary hyperparathyroidism (SHPT) was conducted. Both treatment regimens were titrated to equally suppress SHPT. Patients treated three times weekly with hemodialysis for between about 3 months and about 3 years and with parathyroid hormone (PTH) levels ≥300 pg/ml and LVH were enrolled. The primary study endpoint was left ventricular mass index (LVMI) determined in g/m^2 at baseline and at 12 months by cardiac MRI (cMRI). […] Due to the strong association of volume overload and LVH, randomization was additionally stratified by residual kidney function and regular body composition monitoring was performed to control patients' volume status. […]

PTH [5] = conditions: single intravenous dose, patients on hemodialysis; cited from earlier work
calcium = assay: Trial secondary endpoint: calcium blood levels; format: in vivo, human; conditions: 55 individuals, 12-month follow-up, FIGS. 5A-5B, versus alfacalcidol group
Text: In FIGS. 5A-5B, the calcium blood levels for the subjects in each treatment group is shown. On average, 17 measurements were available throughout follow-up for each individual.
as §1, §2

1.25(OH)2 vitamin D = conditions: after a single 10 mg dose; cited from earlier work
FGF23 [6] = conditions: at 24 hours after a single 10 mg dose; cited from earlier work

## C=C1/C(=C\C=C2/CCC[C@]3(C)[C@@H]([C@H](C)CCCC(C)C)CC[C@@H]23)C[C@@H](O)C[C@@H]1O [Alfacalcidol]
PTH [1]
  decrease of PTH levels: ≥ 30%
FGF23 [2]
  increase of FGF23 levels: threefold

## CC(=O)N[C@H](CSSC[C@H](N)C(=O)O)C(=O)N[C@H](C)C(=O)N[C@H](CCCNC(=N)N)C(=O)N[C@H](CCCNC(=N)N)C(=O)N[C@H](CCCNC(=N)N)C(=O)N[C@H](C)C(=O)N[C@H](CCCNC(=N)N)C(N)=O [etelcalcetide, (2R)-3-[[(2S)-2-acetamido-3-[[(2R)-1-[[(2R) [[(2R)-1-[[(2R)-1-[[(2R)-1-[[(2R)-1-amino-5-(diaminomethydeneamino)-1-oxopentanyl]amino]-1-oxopropan-2-yl]amino]-5-(diaminomethydeneamino)-1-oxopentan-2-yl]amino]-5-(diaminomethydeneamino)-1-oxopentan-2-yl]amino]-5-(diaminomethydeneamino)-1-oxopentan-2-yl]amino]-1-oxopropan-2-yl]amino]-3-oxopropyl]disulfanyl]-2-aminopropanoic acid]
FGF23 [3]
  FGF23 blood levels, overall measurements and longitudinal behavior: lower values which were decreasing over time; also recorded: decreased FGF23 levels
[4]; dialysis patients with sHPT, compared to alfacalcidol
  Prevention of LVH progression: 6-8%
[4]; dialysis patients with sHPT, compared to treatment with alfacalcidol
  LVMI progression: prevented LVMI progression
[4]; intention-to-treat analysis (62 randomized patients), p=0.031
  estimated adjusted mean difference in the change of LVMI: −6.2 (95% confidence interval −11.72 to −0.71) g/m^2
[4]; patients under maintenance hemodialysis, through a suppression of FGF23
  effect on LVH and cardiac fibrosis: effectively ameliorates LVH and cardiac fibrosis
[4]; per-protocol analysis (52 patients who completed), p=0.00809
  estimated adjusted mean difference in the change of LVMI: −8.2 (95% confidence interval −13.99 to −2.39) g/m^2
PTH [5]
  duration of lowering of serum levels of PTH: up to 72 hours
calcium
  calcium blood levels, overall measurements and longitudinal behavior: lower values which were decreasing over time
1.25(OH)2 vitamin D
  effect on 1.25(OH)2 vitamin D levels: little or no effect
FGF23 [6]
  decrease of FGF23 levels: over 30%
